# Molecular target: T1, 3-oxo-5-alpha-steroid 4-dehydrogenase 2 (Homo sapiens, UniProt P31213)
# T1 sequence (P31213 whole entry): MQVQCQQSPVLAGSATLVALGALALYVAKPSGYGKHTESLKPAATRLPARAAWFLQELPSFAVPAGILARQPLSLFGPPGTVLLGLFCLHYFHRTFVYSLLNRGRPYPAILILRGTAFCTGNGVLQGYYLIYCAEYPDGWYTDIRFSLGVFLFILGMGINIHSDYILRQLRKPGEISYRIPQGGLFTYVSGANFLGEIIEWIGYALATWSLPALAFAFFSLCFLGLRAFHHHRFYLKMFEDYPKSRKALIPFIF
# Experiment: Inhibition of Homo sapiens (human) Steroid 5-alpha-reductase type 2
row,Compound,IC50
1,CC(C)(C)NC(=O)[C@H]1CC[C@H]2[C@@H]3CNC4=CC(=O)C=C[C@]4(C)[C@H]3CC[C@]12C,1.8 nM
2,CCN(CC)C(=O)[C@H]1CC[C@H]2[C@@H]3CN(C)C4=CC(=O)CC[C@]4(C)[C@H]3CC[C@]12C,2.3 nM
3,CCCN1C[C@H]2[C@@H]3CC[C@H](C(=O)NC(c4ccccc4)c4ccccc4)[C@@]3(C)CC[C@@H]2[C@@]2(C)C=CC(=O)C=C12,1.3 nM
4,CN1C[C@H]2[C@@H]3CC[C@H](C(=O)NC(C)(C)C)[C@@]3(C)CC[C@@H]2[C@@]2(C)C=CC(=O)C=C12,6.7 nM
5,CCN(CC)C(=O)[C@H]1CC[C@H]2[C@@H]3CN(C)C4=CC(=O)C=C[C@]4(C)[C@H]3CC[C@]12C,5.7 nM
6,CCN(CC)C(=O)[C@H]1CC[C@H]2[C@@H]3CNC4=CC(=O)CC[C@]4(C)[C@H]3CC[C@]12C,1.5 nM
7,CCN(CC)C(=O)[C@H]1CC[C@H]2[C@@H]3CNC4=CC(=O)C=C[C@]4(C)[C@H]3CC[C@]12C,3.5 nM
8,CC(C)(C)c1ccc(-c2ccc(C(F)(F)F)cc2NC(=O)[C@H]2CC[C@H]3[C@@H]4CNC5=CC(=O)CC[C@]5(C)[C@H]4CC[C@]23C)cc1,0.5 nM
9,C[C@]12CC[C@H]3[C@@H](CNC4=CC(=O)CC[C@@]43C)[C@@H]1CC[C@@H]2C(=O)NC(c1ccc(Cl)cc1)c1ccc(Cl)cc1,0.12 nM
10,C[C@]12CC[C@H]3[C@@H](CNC4=CC(=O)CC[C@@]43C)[C@@H]1CC[C@@H]2C(=O)NC(c1ccccc1)(c1ccccc1)c1ccccc1,0.09 nM
11,CC(C)N(C(=O)[C@H]1CC[C@H]2[C@@H]3CNC4=CC(=O)CC[C@]4(C)[C@H]3CC[C@]12C)C(C)C,0.36 nM
12,C[C@]12CC[C@H]3[C@@H](CNC4=CC(=O)CC[C@@]43C)[C@@H]1CC[C@@H]2C(=O)OC1C2CC3CC(C2)CC1C3 (some centres undefined),0.04 nM

# Further molecules by falling IC50, results first:
row,IC50,Compound
1,42 nM,CCN(CC)C(=O)[C@H]1CC[C@H]2[C@@H]3CN(C#N)C4=CC(=O)CC[C@]4(C)[C@H]3CC[C@]12C
2,8.1 nM,CCN(CC)C(=O)[C@H]1CC[C@H]2[C@@H]3CNC4=C(C)C(=O)C=C[C@]4(C)[C@H]3CC[C@]12C
3,7.1 nM,C[C@]12CC[C@H]3[C@@H](CNC4=CC(=O)CC[C@@]43C)[C@@H]1CC[C@@H]2C(=O)N1CCOCC1
4,4.9 nM,CCN(CC)C(=O)[C@H]1CC[C@H]2[C@@H]3CN(C(C)C)C4=CC(=O)CC[C@]4(C)[C@H]3CC[C@]12C
5,2.8 nM,CCN(C)C(=O)[C@H]1CC[C@H]2[C@@H]3CNC4=CC(=O)CC[C@]4(C)[C@H]3CC[C@]12C
6,2.4 nM,CON(C)C(=O)[C@H]1CC[C@H]2[C@@H]3CNC4=CC(=O)CC[C@]4(C)[C@H]3CC[C@]12C
7,2.1 nM,CCN(CC)C(=O)[C@H]1CC[C@H]2[C@@H]3CNC4=C(Br)C(=O)CC[C@]4(C)[C@H]3CC[C@]12C
8,1.4 nM,CC1=C2NC[C@H]3[C@@H]4CC[C@H](C(=O)NC(C)(C)C)[C@@]4(C)CC[C@@H]3[C@@]2(C)CCC1=O
9,0.5 nM,CC(C)c1cc(C(C)C)c(C(=O)[C@H]2CC[C@H]3[C@@H]4CNC5=CC(=O)CC[C@]5(C)[C@H]4CC[C@]23C)c(C(C)C)c1
10,0.4 nM,C[C@]12CC[C@H]3[C@@H](CNC4=CC(=O)CC[C@@]43C)[C@@H]1CC[C@@H]2C(=O)NC(C1CCCCC1)C1CCCCC1
11,0.3 nM,CN1C[C@H]2[C@@H]3CC[C@H](C(=O)NC4C5CC6CC(C5)CC4C6)[C@@]3(C)CC[C@@H]2[C@@]2(C)CCC(=O)C=C12 (some centres undefined)
12,0.23 nM,C[C@]12CC[C@H]3[C@@H](CNC4=CC(=O)CC[C@@]43C)[C@@H]1CC[C@@H]2C(=O)NN(c1ccccc1)c1ccccc1
13,0.2 nM,CN1C[C@H]2[C@@H]3CC[C@H](C(=O)NC(c4ccccc4)c4ccccc4)[C@@]3(C)CC[C@@H]2[C@@]2(C)CCC(=O)C=C12
14,0.2 nM,C[C@]12CC[C@H]3[C@@H](CNC4=CC(=O)CC[C@@]43C)[C@@H]1CC[C@@H]2C(=O)Nc1cc(C(F)(F)F)cc(C(F)(F)F)c1
15,0.2 nM,CC(C)(C)c1ccccc1NC(=O)[C@H]1CC[C@H]2[C@@H]3CNC4=CC(=O)CC[C@]4(C)[C@H]3CC[C@]12C
16,0.09 nM,C[C@]12CC[C@H]3[C@@H](CNC4=CC(=O)CC[C@@]43C)[C@@H]1CC[C@@H]2C(=O)NC(c1ccccc1)c1ccccc1
17,0.08 nM,CC(C)CC(=O)[C@H]1CC[C@H]2[C@@H]3CNC4=CC(=O)CC[C@]4(C)[C@H]3CC[C@]12C
